Data reported in patent publication US8921328B2, “E-selectin antagonists” (GlycoMimetics, Inc., priority 2010, dated 2014).

Key:
[1] = target: T1, E-selectin/IgG construct (Homo sapiens, UniProt P16581); test: BIAcore SPR ranking procedure at a single concentration (relative binding affinity); settings: SPR signal at single concentration 0.05 μM divided by molecular weight, normalized to internal standard; KD larger than for reference compound 64, however below 135 nM; read-out: KD values (relative* binding affinities, ranking procedure)
T1 construct: fused on or other part: IgG Fc part (human, since it is captured by goat anti-human Fc antibody), fused on as a capture handle
T1 sequence (P16581 22-175 limits assumed): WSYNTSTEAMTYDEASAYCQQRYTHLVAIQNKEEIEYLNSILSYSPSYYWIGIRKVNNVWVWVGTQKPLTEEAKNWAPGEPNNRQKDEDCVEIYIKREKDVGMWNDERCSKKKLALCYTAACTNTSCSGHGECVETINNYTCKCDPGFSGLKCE
Description: (§1) The biological evaluation of the E-selectin antagonists was performed by surface plasmon resonance (SPR). For this purpose, an E-selectin/IgG construct was captured onto a BIAcore chip surface bearing covalently linked goat anti-human Fc specific antibody (Biacore Life Sciences, Uppsala, Sweden).
The ranking of the antagonists was performed in order to obtain qualitative information on the binding strength of twenty indole antagonists. For the ranking, SPR signals were recorded at a single concentration (0.05 μM) and divided by the molecular weight of the compounds. The result obtained was normalized to the response obtained with an internal standard (63) in order to avoid problems related to the measurement on different chips with different surfaces. DMSO calibration and double referencing were applied to correct bulk effects and other systematic artifacts (subtraction of reference surface and blank injection).

[2] = target: T1, E-selectin/IgG construct; test: BIAcore surface plasmon resonance (SPR)-based assay, serial dilutions of the ligand (absolute KD); settings: twofold serial dilutions, 600 s association/600 s dissociation, HBS-P + 20 mm calcium + DMSO 5% v/v, read-out: KD values (absolute binding affinities)
Description: as §1
Evaluation of E-Selectin Antagonists with Surface Plasmon Resonance (SPR)-Based Assay
Ten twofold serial dilutions of the ligand were non-randomly injected. The E-selectin antagonists were diluted in running buffer (HBS-P supplemented with […] calcium and DMSO 5% v/v). Antagonist dilutions were injected with a 600 s association time and 600 s dissociation time at a flow rate of 20 μL/min over the reference and the active flow cell. […] In addition, to prevent the presence of residual traces of compound, a blank injection was performed between each injection of ligand dilution. DMSO calibration and double referencing were applied to correct bulk effects and other systematic artifacts (subtraction of reference surface and blank injection).

## C[C@@H]1O[C@@H](O[C@@H]2[C@@H](C)C[C@@H](C(=O)NCCCc3cn(CCCCn4ccc5cc([N+](=O)[O-])ccc54)nn3)C[C@H]2O[C@@H]2O[C@H](CO)[C@H](O)[C@H](O[C@@H](CC3CCCCC3)C(=O)O)[C@H]2OC(=O)c2ccccc2)[C@@H](O)[C@H](O)[C@@H]1O [Product 67, (1R,3R,4R,5S)-3-[2-O-Benzoyl-3-O-((1S)-1-carboxy-2-cyclohexyl-ethyl)-(β-D-galactopyranosyl)oxy]-4-[(α-L-fucopyranosyl)oxy]-5-methyl-N-(3-{1-[4-(5-nitro-1H-indol-1-yl)butyl]-1H-1,2,3-triazol-4-yl}propyl)cyclohexanecarboxamide]
[1]
  Kd: > 89 nM

## C[C@@H]1O[C@@H](O[C@@H]2[C@@H](C)C[C@@H](C(=O)NCCCc3cn(CCn4ccc5cc([N+](=O)[O-])ccc54)nn3)C[C@H]2O[C@@H]2O[C@H](CO)[C@H](O)[C@H](O[C@@H](CC3CCCCC3)C(=O)O)[C@H]2OC(=O)c2ccccc2)[C@@H](O)[C@H](O)[C@@H]1O [Product 65, (1R,3R,4R,5S)-3-[2-O-Benzoyl-3-O-((1S)-1-carboxy-2-cyclohexyl-ethyl)-(β-D-galactopyranosyl)oxy]-4-[(α-L-fucopyranosyl)oxy]-5-methyl-N-(3-{1-[2-(5-nitro-1H-indol-1-yl)ethyl]-1H-1,2,3-triazol-4-yl}propyl)cyclohexanecarboxamide]
[1]
  Kd: > 89 nM

## C[C@@H]1O[C@@H](O[C@@H]2[C@@H](C)C[C@@H](C(=O)NCc3cn(CCCCn4ccc5cc([N+](=O)[O-])ccc54)nn3)C[C@H]2O[C@@H]2O[C@H](CO)[C@H](O)[C@H](O[C@@H](CC3CCCCC3)C(=O)O)[C@H]2OC(=O)c2ccccc2)[C@@H](O)[C@H](O)[C@@H]1O [Product 59, (1R,3R,4R,5S)-3-[2-O-Benzoyl-3-O-((1S)-1-carboxy-2-cyclohexyl-ethyl)-(β-D-galactopyranosyl)oxy]-4-[(α-L-fucopyranosyl)oxy]-5-methyl-N-({1-[4-(5-nitro-1H-indol-1-yl)butyl]-1H-1,2,3-triazol-4-yl}methyl)cyclohexanecarboxamide]
[1]
  Kd: > 89 nM

## C[C@@H]1O[C@@H](O[C@@H]2[C@@H](C)C[C@@H](C(=O)NCCc3cn(CCCCn4ccc5cc([N+](=O)[O-])ccc54)nn3)C[C@H]2O[C@@H]2O[C@H](CO)[C@H](O)[C@H](O[C@@H](CC3CCCCC3)C(=O)O)[C@H]2OC(=O)c2ccccc2)[C@@H](O)[C@H](O)[C@@H]1O [Product 63, (1R,3R,4R,5S)-3-[2-O-Benzoyl-3-O-((1S)-1-carboxy-2-cyclohexyl-ethyl)-(β-D-galactopyranosyl)oxy]-4-[(α-L-fucopyranosyl)oxy]-5-methyl-N-(2-{1-[4-(5-nitro-1H-indol-1-yl)butyl]-1H-1,2,3-triazol-4-yl}ethyl)cyclohexanecarboxamide]
[2]
  Kd: 49 nM

## CC(=O)Nc1ccc2c(ccn2CCCn2cc(CCCNC(=O)[C@@H]3C[C@H](C)[C@@H](O[C@@H]4O[C@@H](C)[C@@H](O)[C@@H](O)[C@@H]4O)[C@H](O[C@@H]4O[C@H](CO)[C@H](O)[C@H](O[C@@H](CC5CCCCC5)C(=O)O)[C@H]4OC(=O)c4ccccc4)C3)nn2)c1 [Product 77, (1R,3R,4R,5S)—N-(3-{1-[3-(5-Acetamido-1H-indol-1-yl)propyl]-1H-1,2,3-triazol-4-yl}propyl)-3-[2-O-benzoyl-3-O-((1S)-1-carboxy-2-cyclohexyl-ethyl)-(β-D-galactopyranosyl)oxy]-4-[(α-L-fucopyranosyl)oxy]-5-methylcyclohexanecarboxamide]
[1]
  Kd: > 89 nM

## C[C@@H]1O[C@@H](O[C@@H]2[C@@H](C)C[C@@H](C(=O)NCc3cn(CCCn4ccc5cc([N+](=O)[O-])ccc54)nn3)C[C@H]2O[C@@H]2O[C@H](CO)[C@H](O)[C@H](O[C@@H](CC3CCCCC3)C(=O)O)[C@H]2OC(=O)c2ccccc2)[C@@H](O)[C@H](O)[C@@H]1O [Product 58, (1R,3R,4R,5S)-3-[2-O-Benzoyl-3-O-((1S)-1-carboxy-2-cyclohexyl-ethyl)-(β-D-galactopyranosyl)oxy]-4-[(α-L-fucopyranosyl)oxy]-5-methyl-N-({1-[3-(5-nitro-1H-indol-1-yl)propyl]-1H-1,2,3-triazol-4-yl}methyl)cyclohexanecarboxamide]
[2]
  Kd: 57 nM

## C[C@@H]1O[C@@H](O[C@@H]2[C@@H](C)C[C@@H](C(=O)NCCCc3cn(CCCn4ccc5cc(NC(=O)COCCOCCN)ccc54)nn3)C[C@H]2O[C@@H]2O[C@H](CO)[C@H](O)[C@H](O[C@@H](CC3CCCCC3)C(=O)O)[C@H]2OC(=O)c2ccccc2)[C@@H](O)[C@H](O)[C@@H]1O [Product 78, (1R,3R,4R,5S)—N-(3-{1-[3-(5-{2-[2-(2-Aminoethoxy)ethoxy]acetamido}-1H-indol-1-yl)propyl]-1H-1,2,3-triazol-4-yl}propyl)-3-[2-O-benzoyl-3-O-((1S)-1-carboxy-2-cyclohexyl-ethyl)-(β-D-galactopyranosyl)oxy]-4-[(α-L-fucopyranosyl)oxy]-5-methylcyclohexanecarboxamide]
[1]
  Kd: > 89 nM

## C[C@@H]1O[C@@H](O[C@@H]2[C@@H](C)C[C@@H](C(=O)NCCCc3cn(CCCn4ccc5cc(N)ccc54)nn3)C[C@H]2O[C@@H]2O[C@H](CO)[C@H](O)[C@H](O[C@@H](CC3CCCCC3)C(=O)O)[C@H]2OC(=O)c2ccccc2)[C@@H](O)[C@H](O)[C@@H]1O [Product 76, (1R,3R,4R,5S)—N-(3-{1-[3-(5-Amino-1H-indol-1-yl)propyl]-1H-1,2,3-triazol-4-yl}propyl)-3-[2-O-benzoyl-3-O-((1S)-1-carboxy-2-cyclohexyl-ethyl)-(β-D-galactopyranosyl)oxy]-4-[(α-L-fucopyranosyl)oxy]-5-methylcyclohexanecarboxamide]
[1]
  Kd: > 89 nM

## C[C@@H]1O[C@@H](O[C@@H]2[C@@H](C)C[C@@H](C(=O)NCCc3cn(CCCn4ccc5cc([N+](=O)[O-])ccc54)nn3)C[C@H]2O[C@@H]2O[C@H](CO)[C@H](O)[C@H](O[C@@H](CC3CCCCC3)C(=O)O)[C@H]2OC(=O)c2ccccc2)[C@@H](O)[C@H](O)[C@@H]1O [Product 62, (1R,3R,4R,5S)-3-[2-O-Benzoyl-3-O-((1S)-1-carboxy-2-cyclohexyl-ethyl)-(β-D-galactopyranosyl)oxy]-4-[(α-L-fucopyranosyl)oxy]-5-methyl-N-(2-{1-[3-(5-nitro-1H-indol-1-yl)propyl]-1H-1,2,3-triazol-4-yl}ethyl)cyclohexanecarboxamide]
[1]
  Kd: > 89 nM

## C[C@@H]1O[C@@H](O[C@@H]2[C@@H](C)C[C@@H](C(=O)NCCc3cn(CCn4ccc5cc([N+](=O)[O-])ccc54)nn3)C[C@H]2O[C@@H]2O[C@H](CO)[C@H](O)[C@H](O[C@@H](CC3CCCCC3)C(=O)O)[C@H]2OC(=O)c2ccccc2)[C@@H](O)[C@H](O)[C@@H]1O [Product 61, (1R,3R,4R,5S)-3-[2-O-Benzoyl-3-O-((1S)-1-carboxy-2-cyclohexyl-ethyl)-(β-D-galactopyranosyl)oxy]-4-[(α-L-fucopyranosyl)oxy]-5-methyl-N-(2-{1-[2-(5-nitro-1H-indol-1-yl)ethyl]-1H-1,2,3-triazol-4-yl}ethyl)cyclohexanecarboxamide]
[1]
  Kd: > 89 nM

## CC1CC(C(=O)NCCCN2CCN(CCCn3ccc4cc([N+](=O)[O-])ccc43)CC2)C[C@@H](O[C@@H]2OC(CO)[C@H](O)C(O[C@@H](CC3CCCCC3)C(=O)O)C2OC(=O)c2ccccc2)C1O[C@@H]1OC(C)[C@@H](O)C(O)C1O (stereo partly drawn) [Product 82, (1R,3R,4R,5S)-3-[2-O-Benzoyl-3-O-((1S)-1-carboxy-2-cyclohexyl-ethyl)-(β-D-galactopyranosyl)oxy]-4-[(α-L-fucopyranosyl)oxy]-5-methyl-N-(3-{1-[3-(5-nitro-1H-indol-1-yl)propyl]piperazin-1-yl}propyl)cyclohexanecarboxamide]
[2]
  Kd: 110 nM

## C[C@@H]1O[C@@H](O[C@@H]2[C@@H](C)C[C@@H](C(=O)NCc3cn(CCn4ccc5cc([N+](=O)[O-])ccc54)nn3)C[C@H]2O[C@@H]2O[C@H](CO)[C@H](O)[C@H](O[C@@H](CC3CCCCC3)C(=O)O)[C@H]2OC(=O)c2ccccc2)[C@@H](O)[C@H](O)[C@@H]1O [Product 57, (1R,3R,4R,5S)-3-[2-O-Benzoyl-3-O-((1S)-1-carboxy-2-cyclohexyl-ethyl)-(β-D-galactopyranosyl)oxy]-4-[(α-L-fucopyranosyl)oxy]-5-methyl-N-({1-[2-(5-nitro-1H-indol-1-yl)ethyl]-1H-1,2,3-triazol-4-yl}methyl)cyclohexanecarboxamide]
[1]
  Kd: > 89 nM
